Test results taken from ChEMBL document CHEMBL3885861, “Open TG-GATES”.

Organism: Rattus norvegicus
Test: Open TG-GATES - Regimen: Single
Type: toxicity, organism-based, Sprague-Dawley
Design: regimen Single, gender Male, age 6 weeks
Settings: in vivo, po, 0 mg/kg, route gavage, dose level Control; for APTT / Bas / Eos / Fbg / Hb / Ht / Lym / MCH / MCHC / MCV / Mono / Neu / PT / Plat / RBC / Ret / WBC: tissue Blood; for KIDNEY_L / KIDNEY_R / KIDNEY_TOTAL: tissue Kidney; for LIVER: tissue Liver; for A/G / ALP / ALT / AST / BUN / CRE / Ca / Cl / DBIL / GLC / IP / K / LDH / Na / PL / RALB / TBIL / TC / TG / TP / gamma-GTP: tissue Plasma

COc1ccc(Cc2nccc3cc(OC)c(OC)cc23)cc1OC [PAPAVERINE]
TERMINAL_BW (3 h): 223.5 g | APTT (3 h): 21.8 s | Bas (3 h): 0% | Eos (3 h): 0.8% | Fbg (3 h): 332.6 mg/dL | Hb (3 h): 13.5 g/dL | Ht (3 h): 40.3% | Lym (3 h): 80.6% | MCH (3 h): 21.3 pg | MCHC (3 h): 33.5% | MCV (3 h): 63.4 fL | Mono (3 h): 2.2% | Neu (3 h): 15% | PT (3 h): 15.8 s | Plat (3 h): 108.7 x10_4/uL | RBC (3 h): 637.4 x10_4/ul | Ret (3 h): 7.9% | WBC (3 h): 110.9 x10_2/uL | KIDNEY_L (3 h): 1 g | KIDNEY_R (3 h): 1 g | KIDNEY_TOTAL (3 h): 2 g | LIVER (3 h): 10.2 g | A/G (3 h): 1.2 | ALP (3 h): 1651.2 IU/L | ALT (3 h): 42.8 IU/L | AST (3 h): 73 IU/L | BUN (3 h): 14 mg/dL | CRE (3 h): 0.1 mg/dL | Ca (3 h): 11 mg/dL | Cl (3 h): 108.6 meq/L | DBIL (3 h): 0 mg/dL | GLC (3 h): 193.6 mg/dL | IP (3 h): 7.8 mg/dL | K (3 h): 4 meq/L | LDH (3 h): 147.2 IU/L | Na (3 h): 141.6 meq/L | PL (3 h): 140.2 mg/dL | RALB (3 h): 3 g/dL | TBIL (3 h): 0.01 mg/dL | TC (3 h): 82.6 mg/dL | TG (3 h): 55 mg/dL | TP (3 h): 5.5 g/dL | gamma-GTP (3 h): 2 IU/L | TERMINAL_BW (6 h): 214 g | APTT (6 h): 23 s | Bas (6 h): 0% | Eos (6 h): 0.6% | Fbg (6 h): 325.8 mg/dL | Hb (6 h): 13.8 g/dL | Ht (6 h): 41.4% | Lym (6 h): 82.8% | MCH (6 h): 20.8 pg | MCHC (6 h): 33.3% | MCV (6 h): 62.5 fL | Mono (6 h): 2.2% | Neu (6 h): 13.4% | PT (6 h): 15.9 s | Plat (6 h): 116.4 x10_4/uL | RBC (6 h): 664 x10_4/ul | Ret (6 h): 7.4% | WBC (6 h): 118.9 x10_2/uL | KIDNEY_L (6 h): 0.9 g | KIDNEY_R (6 h): 0.9 g | KIDNEY_TOTAL (6 h): 1.8 g | LIVER (6 h): 9.4 g | A/G (6 h): 1.2 | ALP (6 h): 1310.2 IU/L | ALT (6 h): 38.4 IU/L | AST (6 h): 74.4 IU/L | BUN (6 h): 10 mg/dL | CRE (6 h): 0.1 mg/dL | Ca (6 h): 11 mg/dL | Cl (6 h): 106.2 meq/L | DBIL (6 h): 0.002 mg/dL | GLC (6 h): 180.6 mg/dL | IP (6 h): 8.8 mg/dL | K (6 h): 4.3 meq/L | LDH (6 h): 159.6 IU/L | Na (6 h): 140.8 meq/L | PL (6 h): 131.6 mg/dL | RALB (6 h): 2.9 g/dL | TBIL (6 h): 0.01 mg/dL | TC (6 h): 79.2 mg/dL | TG (6 h): 47.6 mg/dL | TP (6 h): 5.3 g/dL | gamma-GTP (6 h): 2 IU/L | TERMINAL_BW (9 h): 213.9 g | APTT (9 h): 22.9 s | Bas (9 h): 0% | Eos (9 h): 1% | Fbg (9 h): 312.8 mg/dL | Hb (9 h): 13.1 g/dL | Ht (9 h): 39.9% | Lym (9 h): 81.2% | MCH (9 h): 20.3 pg | MCHC (9 h): 33% | MCV (9 h): 61.6 fL | Mono (9 h): 2.4% | Neu (9 h): 14.4% | PT (9 h): 15.6 s | Plat (9 h): 107.7 x10_4/uL | RBC (9 h): 647.6 x10_4/ul | Ret (9 h): 7.9% | WBC (9 h): 110.4 x10_2/uL | KIDNEY_L (9 h): 0.9 g | KIDNEY_R (9 h): 0.9 g | KIDNEY_TOTAL (9 h): 1.9 g | LIVER (9 h): 9.1 g | A/G (9 h): 1.3 | ALP (9 h): 1489.8 IU/L | ALT (9 h): 41.2 IU/L | AST (9 h): 69.4 IU/L | BUN (9 h): 11.2 mg/dL | CRE (9 h): 0.1 mg/dL | Ca (9 h): 10.9 mg/dL | Cl (9 h): 105.8 meq/L | DBIL (9 h): 0 mg/dL | GLC (9 h): 190.8 mg/dL | IP (9 h): 9.1 mg/dL | K (9 h): 4.2 meq/L | LDH (9 h): 169 IU/L | Na (9 h): 140.6 meq/L | PL (9 h): 134.6 mg/dL | RALB (9 h): 3 g/dL | TBIL (9 h): 0.016 mg/dL | TC (9 h): 78.4 mg/dL | TG (9 h): 75 mg/dL | TP (9 h): 5.3 g/dL | gamma-GTP (9 h): 1.6 IU/L | TERMINAL_BW (24 h): 237.4 g | APTT (24 h): 21.6 s | Bas (24 h): 0% | Eos (24 h): 1% | Fbg (24 h): 315.8 mg/dL | Hb (24 h): 13.5 g/dL | Ht (24 h): 40% | Lym (24 h): 81% | MCH (24 h): 21 pg | MCHC (24 h): 33.6% | MCV (24 h): 62.6 fL | Mono (24 h): 2.8% | Neu (24 h): 14.6% | PT (24 h): 16 s | Plat (24 h): 106.2 x10_4/uL | RBC (24 h): 639.4 x10_4/ul | Ret (24 h): 7.5% | WBC (24 h): 110.4 x10_2/uL | KIDNEY_L (24 h): 1 g | KIDNEY_R (24 h): 1 g | KIDNEY_TOTAL (24 h): 2.1 g | LIVER (24 h): 11.3 g | A/G (24 h): 1.3 | ALP (24 h): 1563.2 IU/L | ALT (24 h): 46.2 IU/L | AST (24 h): 72.2 IU/L | BUN (24 h): 15.4 mg/dL | CRE (24 h): 0.1 mg/dL | Ca (24 h): 10.8 mg/dL | Cl (24 h): 106.2 meq/L | DBIL (24 h): 0 mg/dL | GLC (24 h): 198.2 mg/dL | IP (24 h): 7.9 mg/dL | K (24 h): 4.4 meq/L | LDH (24 h): 179.4 IU/L | Na (24 h): 143 meq/L | PL (24 h): 142.6 mg/dL | RALB (24 h): 3 g/dL | TBIL (24 h): 0.01 mg/dL | TC (24 h): 77 mg/dL | TG (24 h): 87.8 mg/dL | TP (24 h): 5.3 g/dL | gamma-GTP (24 h): 1.8 IU/L
